Test results taken from patent US8519110B2, “mRNA cap analogs” (Board of Supervisors of Louisiana State University And …, priority 2008, dated 2013).

How the values were obtained:
eIF4E = eIF4E (Mus musculus, UniProt P63073); test: Binding affinity of cap analogs to eIF4E by fluorescence titration; details: equilibrium association constant; for Cap analog/eIF4E affinity (KAS): 20 °C, pH 7.2, ionic strength 150 mM
Protocol: Fluorescence titration measurements were carried out on an LS-50B or LS-55 spectrofluorometer (Perkin Elmer Co.) at 20.0±0.2° C. in 50 mM HEPES/KOH (pH 7.2), 0.5 mM EDTA, and 1 mM DTT, with ionic strength adjusted to 150 mM by addition of KCl. Various cap analogue solutions, of increasing concentration, were added in 1 μl aliquots to 1.4 ml of 0.1 or 0.2 μM protein solutions. Fluorescence intensities were measured with excitation at 280 nm or 295 nm with 2.2 nm bandwidth, and detection at 337 nm with 4 nm bandwidth and a 290-nm cut-off filter. The data were corrected for sample dilution and inner filter effects. Equilibrium association constants (Kas) were determined by fitting the theoretical dependence of fluorescence intensity on cap analog concentration to the experimental data, as otherwise described in A. Niedźwiecka et al., “Biophysical studies of eIF4E cap-binding protein: recognition of mRNA 5′ cap structure and synthetic fragments of eIF4G and 4E-BP1 proteins,” J. Mol. Biol., vol. 312, pp. 615-635 (2002). The concentration of protein was allowed to be a free parameter in the equilibrium equation, to determine the amount of “active” protein. The final Kas was calculated as a weighted average of three to ten independent titrations, with the weights taken as the reciprocals of the squares of the numerical standard deviations. Numerical nonlinear least-square regression analysis was performed using ORGIN 6.0 (Microcal Software Inc., USA).
The binding affinities of eukaryotic eIF4E for various cap analogs were determined by fluorescence quenching. This biophysical test allows one to predict the potential efficacy of cap analogs in translation. Those having higher affinities for eIF4E than the unmodified cap analog (m^7GpppG) are expected to be better recognized by the translational machinery, leading to higher translational efficiencies. They also are expected to compete more effectively with unmodified mRNA when free cap dinucleotides are used to inhibit translation. See generally E. Grudzien-Nogalska et al., “Synthesis of anti-reverse cap analogs (ARCAs) and their applications in mRNA translation and stability,” Methods Enzymol., vol. 431, pp. 203-227 (2007).

Human DcpS = target: T1, Human DcpS (Homo sapiens, UniProt Q96C86); test: Assay of susceptibility to DcpS (RP HPLC); format: biochemical
T1 construct: made in house; host or cells: Escherichia coli
T1 sequence (Q96C86 1-337): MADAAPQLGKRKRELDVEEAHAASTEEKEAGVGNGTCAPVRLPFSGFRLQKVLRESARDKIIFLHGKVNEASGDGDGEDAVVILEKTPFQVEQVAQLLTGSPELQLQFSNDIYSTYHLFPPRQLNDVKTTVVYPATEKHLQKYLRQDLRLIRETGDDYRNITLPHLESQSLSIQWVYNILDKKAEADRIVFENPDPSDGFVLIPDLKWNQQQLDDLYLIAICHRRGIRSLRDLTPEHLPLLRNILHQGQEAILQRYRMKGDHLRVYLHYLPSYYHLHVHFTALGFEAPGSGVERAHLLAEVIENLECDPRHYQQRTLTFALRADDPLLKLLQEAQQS
Protocol: Human DcpS was expressed in Escherichia coli as described in L. Cohen et al., “Nematode m^7GpppG and m3^2,2,7GpppG decapping: activities in Ascaris embryos and characterization of C. elegans scavenger DcpS,” RNA, vol. 10, pp. 1609-1624 (2004). A 15 μM solution of the protein in 20 mM Tris buffer, pH 7.5, containing 50 mM KCl, 0.2 mM EDTA, 1 mM DTT, 0.5 mM PMSF, and 20% glycerol was stored at −80° C. until used. Enzymatic reactions were carried out at 30° C. in 500 μl of 50 mM Tris-HCl, pH 7.9, containing 20 mM MgCl2 and 60 mM (NH4)2SO4. A 40 μM solution of the selected cap analog was treated with 5.0 μl of DcpS for 120 min. At times of 10, 30, 60, and 120 min, a 100-μl sample was collected from the reaction mixture and deactivated by incubation at 90° C. for 2 min. Samples were analyzed without further treatment by analytical RP HPLC with a linear gradient of methanol in 0.1 M KH2PO4, pH 6.0, from 0-50% over 15 min.

[1] = system: rabbit reticulocyte lysate system; test: In vitro translation efficiency of capped luciferase mRNA with 31-base poly(A) tail, method II transcripts; format: biochemical; details: for Translation efficiency in comparison to m^7GpppG-LUC-(A)31 mRNA, Experiment No. 4: experiment 4; for Translation efficiency in comparison to m^7GpppG-LUC-(A)31 mRNA, Experiment No. 5: experiment 5; for Translation efficiency in comparison to m^7GpppG-LUC-(A)31 mRNA, Mean: mean of experiments
Protocol: Capped, polyadenylated luciferase mRNAs were synthesized in vitro by PCR from a dsDNA template that contained the SP6 promoter, the 5′-UTR sequence of rabbit β-globin mRNA, the entire firefly luciferase coding region, and 31 adenosine residues. A typical transcription reaction mixture (40 μl) contained SP6 transcription buffer (Fermentas), 0.7 ug of DNA template, 1 U/μl RiboLock Ribonuclease Inhibitor (Fermentas), 0.5 mM each of ATP, CTP, and UTP, 0.1 mM GTP, and 0.5 mM dinucleotide cap analog. The reaction mixture was incubated at 37° C. for 5 min before addition of SP6 RNA polymerase (Fermentas) to a final concentration of 1 U/μl, and incubation then continued for 45 min at 37° C. The reaction mixture was treated with DNase as in Method I. RNA transcripts were purified with NucAway Spin Columns (Ambion). The integrity of transcripts and quantitation was performed as in Method I.
(§1) A micrococcal nuclease-treated rabbit reticulocyte lysate system (Flexi Rabbit Reticulocyte Lysate System, Promega) was used for in vitro translation. Translation reactions were performed in 10 μl for 60 min at 30° C. A typical reaction mixture contained 40% reticulocyte lysate, the 20 “standard” amino acids (0.01 mM each), MgCl2 (1.2 mM), potassium acetate (170 mM), and mRNA (five different concentrations of each transcript, ranging from 0.25 to 4 μg/ml). Luciferase activity was measured in a luminometer (Glomax, Promega). Linear regression was used to fit the data points (luciferase activity versus concentration of mRNA transcript), and translational efficiency was defined as the slope of this line. The relative translational efficiencies of the test mRNAs were compared to that of m^7GpppG-capped luciferase mRNA, the latter being defined as 1.0.

[2] = system: rabbit reticulocyte lysate system; test: In vitro translation efficiency of capped luciferase mRNA, method I transcripts; format: biochemical
Protocol: A DNA template for in vitro transcription was synthesized by PCR from the plasmid SP6p-5′UTR β-globin-LUCiferase. The template contained the SP6 promoter followed by the 5′-UTR sequence of rabbit β-globin mRNA and the entire firefly luciferase mRNA coding region. A typical in vitro transcription reaction mixture (50 μl) contained SP6 transcription buffer (Fermentas, cat. no. EP0131), 2 μg of DNA template, 2 U/μl RiboLock Ribonuclease Inhibitor (Fermentas), 2 mM each of ATP, CTP, and UTP, 0.1 mM GTP, and 1 mM dinucleotide cap analog. The reaction mixture was incubated at 37° C. for 5 min before the addition of SP6 RNA polymerase (Fermentas) to a final concentration of 2 U/μl. After 30 min of incubation at 37° C., GTP was added to a final concentration of 1 mM, and the reaction continued for an additional 90 min. The reaction mixtures were then treated with 1 U of DNase RQ1 (RNAse-free, Promega) per μg of template DNA in transcription buffer at 37° C. for 20 min. RNA transcripts were purified on DEPC-treated Sephadex G-50 spin columns (Pharmacia). The integrity of transcripts was confirmed by electrophoresis on a non-denaturating, 1% agarose gel. Concentrations were determined spectrophotometrically. The transcripts were stored at −80° C. until used.
as §1

[3] = 40 μM cap analog, 30° C., up to 120 min

eIF4E, sequence (P63073 28-217 limits assumed): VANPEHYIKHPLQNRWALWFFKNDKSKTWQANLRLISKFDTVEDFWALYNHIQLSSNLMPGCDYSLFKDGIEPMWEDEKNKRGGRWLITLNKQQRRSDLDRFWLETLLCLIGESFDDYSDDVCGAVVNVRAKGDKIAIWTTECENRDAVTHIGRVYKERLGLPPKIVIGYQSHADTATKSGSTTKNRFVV

Row | Compound | Cap analog/eIF4E affinity (KAS) (eIF4E) [μM^−1] | Susceptibility to DcpS (Human DcpS; [3]) | Translation efficiency in comparison to m^7GpppG-LUC-(A)31 mRNA, Experiment No. 4 [1] | Translation efficiency in comparison to m^7GpppG-LUC-(A)31 mRNA, Experiment No. 5 [1] | Translation efficiency in comparison to m^7GpppG-LUC-(A)31 mRNA, Mean [1] | Cap analog-eIF4E affinity (KAS) (eIF4E; Table 3) [μM^−1] | Susceptibility to DcpS (Human DcpS; Table 3) | Translation efficiency in comparison with m^7GpppG-LUC mRNA, Experiment No. 1 ([2]; experiment 1) | Translation efficiency in comparison with m^7GpppG-LUC mRNA, Experiment No. 2 ([2]; experiment 2) | Translation efficiency in comparison with m^7GpppG-LUC mRNA, Experiment No. 3 ([2]; experiment 3) | Translation efficiency in comparison with m^7GpppG-LUC mRNA, Experiment No. 4 ([2]; experiment 4) | Translation efficiency in comparison with m^7GpppG-LUC mRNA, Mean ([2]; mean of experiments) | In vitro translational efficiency, method I ([2]; relative to m^7GpppG-capped luciferase mRNA = 1.0) | In vitro translational efficiency (method II) ([1]; Table 3, relative to m^7GpppG-capped mRNA = 1.0) | Translation efficiency in comparison to m^7GpppG-LUC-(A)31 mRNA, Experiment No. 1 ([1]; experiment 1) | Translation efficiency in comparison to m^7GpppG-LUC-(A)31 mRNA, Experiment No. 2 ([1]; experiment 2) | Translation efficiency in comparison to m^7GpppG-LUC-(A)31 mRNA, Experiment No. 3 ([1]; experiment 3)
1 | [BH3-]P(=O)(OP(=O)(O)OCC1OC(n2cnc3c(=O)[nH]c(N)nc32)C(O)C1O)OP(=O)(O)OCC1OC(n2c[n+](C)c3c(=O)[nH]c(N)nc32)C(OC)C1O (single isomer, unassigned) [m2^7,2′-OGppBH3pG (D2), m2^7,2′-OGppBH3pG] | 13.2 ± 0.2 | resistant | 3.16 | 3.53 | 3.35 | – | – | – | – | – | – | – | – | – | – | – | –
2 | [BH3-]P(=O)(OC[C@H]1O[C@@H](n2cnc3c(=O)[nH]c(N)nc32)[C@H](O)[C@@H]1O)OP(=O)(O)OP(=O)(O)OC[C@H]1O[C@@H](n2c[n+](C)c3c(=O)[nH]c(N)nc32)[C@H](OC)[C@@H]1O (single isomer, unassigned) [m2^7,2′-OGpppBH3G (D2), m2^7,2′-OGpppBH3G] | 14.4 ± 0.2 | hydrolyzed | 1.76 | 1.92 | 1.84 | – | – | – | – | – | – | – | – | – | – | – | –
3 | [BH3-]P(=O)(OC[C@H]1O[C@@H](n2cnc3c(=O)[nH]c(N)nc32)[C@H](O)[C@@H]1O)OP(=O)(O)OP(=O)(O)OC[C@H]1O[C@@H](n2c[n+](C)c3c(=O)[nH]c(N)nc32)[C@H](OC)[C@@H]1O (single isomer, unassigned) [m2^7,2′-OGpppBH3G (D1), m2^7,2′-OGpppBH3G] | 15.3 ± 0.2 | hydrolyzed | 2.38 | 3.28 | 2.83 | – | – | – | – | – | – | – | – | – | – | – | –
4 | CO[C@H]1[C@@H](O)[C@H]([n+]2cn(C)c3c(=O)[nH]c(N)nc32)O[C@@H]1COP(=O)([O-])OP(=O)(O)OP(=O)(O)OC[C@H]1O[C@@H](n2cnc3c(=O)[nH]c(N)nc32)[C@H](O)[C@@H]1O [m2^7,3′-OGpppG, 7-methyl(3′-O-methyl)GpppG, reference compound] | 10.2 ± 0.3 | hydrolyzed | 1.77 | 2.08 | 1.82 | 10.2 ± 0.3 | hydrolyzed | 2.53 | 2.92 | 2.96 | 2.50 | 2.73 | 2.73 ± 0.25 | 1.82 ± 0.20 | 1.98 | 1.66 | 1.61
